One experiment concerns the target D(1A) dopamine receptor (Homo sapiens, UniProt P21728). Format: functional, cell-based.
Another experiment has as its target D(3) dopamine receptor (Homo sapiens, UniProt P35462).
The next experiment has as its target T1, Thromboxane A2 receptor (Homo sapiens, UniProt P21731).
T1 sequence (P21731 whole entry): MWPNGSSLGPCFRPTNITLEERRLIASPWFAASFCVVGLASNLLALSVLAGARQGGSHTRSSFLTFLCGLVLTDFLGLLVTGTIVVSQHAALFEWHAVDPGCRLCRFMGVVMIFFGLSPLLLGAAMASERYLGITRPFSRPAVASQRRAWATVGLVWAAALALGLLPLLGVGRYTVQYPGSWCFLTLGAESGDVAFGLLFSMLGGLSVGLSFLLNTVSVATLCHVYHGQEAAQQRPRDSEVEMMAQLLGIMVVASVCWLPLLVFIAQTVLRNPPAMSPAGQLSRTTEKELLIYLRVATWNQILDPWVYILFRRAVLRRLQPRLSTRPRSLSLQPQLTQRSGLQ

Experiment [1] addresses cGMP-inhibited 3',5'-cyclic phosphodiesterase 3A (Homo sapiens, UniProt Q14432). In kind it is functional.
The next experiment has as its target Melanocortin receptor 3 (Homo sapiens, UniProt P41968).
Another experiment addresses T2, Adenosine receptor A1 (Homo sapiens, UniProt P30542).
T2 sequence (P30542 whole entry): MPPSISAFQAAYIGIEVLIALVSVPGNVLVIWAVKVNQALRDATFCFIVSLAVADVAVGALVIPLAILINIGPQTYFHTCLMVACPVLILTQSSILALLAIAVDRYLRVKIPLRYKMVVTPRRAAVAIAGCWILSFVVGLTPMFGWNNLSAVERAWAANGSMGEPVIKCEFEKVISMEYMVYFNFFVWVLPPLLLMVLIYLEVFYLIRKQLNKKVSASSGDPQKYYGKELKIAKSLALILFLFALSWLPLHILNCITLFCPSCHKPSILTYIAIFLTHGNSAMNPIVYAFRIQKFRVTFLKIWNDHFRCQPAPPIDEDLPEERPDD

Experiment [2] addresses T3, 5-hydroxytryptamine receptor 2C (Homo sapiens, UniProt P28335).
T3 sequence (P28335 whole entry): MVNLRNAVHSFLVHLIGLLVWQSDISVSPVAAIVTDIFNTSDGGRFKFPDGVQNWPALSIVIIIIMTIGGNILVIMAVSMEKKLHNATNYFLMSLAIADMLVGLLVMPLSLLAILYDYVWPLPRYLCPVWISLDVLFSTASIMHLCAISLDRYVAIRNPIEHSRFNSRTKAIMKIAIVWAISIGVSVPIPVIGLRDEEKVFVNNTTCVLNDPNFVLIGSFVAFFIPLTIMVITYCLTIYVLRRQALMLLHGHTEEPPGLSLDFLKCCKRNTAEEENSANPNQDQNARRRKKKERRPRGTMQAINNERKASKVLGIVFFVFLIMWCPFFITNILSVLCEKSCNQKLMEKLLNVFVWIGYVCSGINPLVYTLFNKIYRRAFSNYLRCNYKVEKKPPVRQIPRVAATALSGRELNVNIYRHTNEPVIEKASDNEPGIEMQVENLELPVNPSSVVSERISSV

In the next experiment the target is T4, Adenosine receptor A3 (Homo sapiens, UniProt P0DMS8).
T4 sequence (P0DMS8 whole entry): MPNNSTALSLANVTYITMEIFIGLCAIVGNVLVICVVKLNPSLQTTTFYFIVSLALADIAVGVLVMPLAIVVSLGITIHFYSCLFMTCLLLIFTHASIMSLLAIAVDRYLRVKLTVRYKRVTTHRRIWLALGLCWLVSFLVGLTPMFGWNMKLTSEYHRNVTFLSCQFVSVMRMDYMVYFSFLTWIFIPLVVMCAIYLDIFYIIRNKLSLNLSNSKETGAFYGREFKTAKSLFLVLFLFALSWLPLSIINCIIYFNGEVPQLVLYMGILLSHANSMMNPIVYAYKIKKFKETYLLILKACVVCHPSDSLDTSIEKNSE

A further experiment deals with T5, Glucocorticoid receptor (Homo sapiens, UniProt P04150).
T5 sequence (P04150 whole entry): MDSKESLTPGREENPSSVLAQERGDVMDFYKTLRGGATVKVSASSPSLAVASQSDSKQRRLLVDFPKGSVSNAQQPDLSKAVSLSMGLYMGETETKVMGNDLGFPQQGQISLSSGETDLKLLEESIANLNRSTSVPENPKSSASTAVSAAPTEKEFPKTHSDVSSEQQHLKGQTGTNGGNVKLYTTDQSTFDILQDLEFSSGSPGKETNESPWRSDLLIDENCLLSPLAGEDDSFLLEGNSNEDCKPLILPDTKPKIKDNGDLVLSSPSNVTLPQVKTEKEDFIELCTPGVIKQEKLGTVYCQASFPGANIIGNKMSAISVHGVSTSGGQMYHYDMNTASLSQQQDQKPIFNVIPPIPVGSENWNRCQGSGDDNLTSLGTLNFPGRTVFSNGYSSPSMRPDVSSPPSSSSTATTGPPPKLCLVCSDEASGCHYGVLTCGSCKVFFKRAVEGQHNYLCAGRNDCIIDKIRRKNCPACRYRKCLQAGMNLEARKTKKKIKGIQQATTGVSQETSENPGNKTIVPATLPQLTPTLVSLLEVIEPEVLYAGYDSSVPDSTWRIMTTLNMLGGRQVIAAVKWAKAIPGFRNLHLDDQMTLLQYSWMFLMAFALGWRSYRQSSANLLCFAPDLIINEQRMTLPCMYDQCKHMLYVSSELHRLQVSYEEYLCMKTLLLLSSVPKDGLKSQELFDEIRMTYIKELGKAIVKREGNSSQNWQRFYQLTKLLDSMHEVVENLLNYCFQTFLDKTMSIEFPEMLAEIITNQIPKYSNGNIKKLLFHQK

Experiment [3] concerns the target 5-hydroxytryptamine receptor 2B (Homo sapiens, UniProt P41595). In kind it is functional, cell-based.

SMILES strings stand for the structures.
Further: assay procedure not described here.

Melanocortin receptor 3, sequence (P41968 whole entry): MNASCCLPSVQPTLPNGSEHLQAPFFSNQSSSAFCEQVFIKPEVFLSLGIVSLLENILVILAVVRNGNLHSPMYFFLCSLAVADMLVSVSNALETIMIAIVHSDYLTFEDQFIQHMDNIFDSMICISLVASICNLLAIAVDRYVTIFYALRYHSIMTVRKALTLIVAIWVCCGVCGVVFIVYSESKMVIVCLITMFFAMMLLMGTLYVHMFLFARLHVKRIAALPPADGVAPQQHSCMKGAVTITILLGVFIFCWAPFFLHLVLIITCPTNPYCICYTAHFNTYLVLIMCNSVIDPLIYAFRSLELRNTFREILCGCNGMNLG
cGMP-inhibited 3',5'-cyclic phosphodiesterase 3A, sequence (Q14432 whole entry): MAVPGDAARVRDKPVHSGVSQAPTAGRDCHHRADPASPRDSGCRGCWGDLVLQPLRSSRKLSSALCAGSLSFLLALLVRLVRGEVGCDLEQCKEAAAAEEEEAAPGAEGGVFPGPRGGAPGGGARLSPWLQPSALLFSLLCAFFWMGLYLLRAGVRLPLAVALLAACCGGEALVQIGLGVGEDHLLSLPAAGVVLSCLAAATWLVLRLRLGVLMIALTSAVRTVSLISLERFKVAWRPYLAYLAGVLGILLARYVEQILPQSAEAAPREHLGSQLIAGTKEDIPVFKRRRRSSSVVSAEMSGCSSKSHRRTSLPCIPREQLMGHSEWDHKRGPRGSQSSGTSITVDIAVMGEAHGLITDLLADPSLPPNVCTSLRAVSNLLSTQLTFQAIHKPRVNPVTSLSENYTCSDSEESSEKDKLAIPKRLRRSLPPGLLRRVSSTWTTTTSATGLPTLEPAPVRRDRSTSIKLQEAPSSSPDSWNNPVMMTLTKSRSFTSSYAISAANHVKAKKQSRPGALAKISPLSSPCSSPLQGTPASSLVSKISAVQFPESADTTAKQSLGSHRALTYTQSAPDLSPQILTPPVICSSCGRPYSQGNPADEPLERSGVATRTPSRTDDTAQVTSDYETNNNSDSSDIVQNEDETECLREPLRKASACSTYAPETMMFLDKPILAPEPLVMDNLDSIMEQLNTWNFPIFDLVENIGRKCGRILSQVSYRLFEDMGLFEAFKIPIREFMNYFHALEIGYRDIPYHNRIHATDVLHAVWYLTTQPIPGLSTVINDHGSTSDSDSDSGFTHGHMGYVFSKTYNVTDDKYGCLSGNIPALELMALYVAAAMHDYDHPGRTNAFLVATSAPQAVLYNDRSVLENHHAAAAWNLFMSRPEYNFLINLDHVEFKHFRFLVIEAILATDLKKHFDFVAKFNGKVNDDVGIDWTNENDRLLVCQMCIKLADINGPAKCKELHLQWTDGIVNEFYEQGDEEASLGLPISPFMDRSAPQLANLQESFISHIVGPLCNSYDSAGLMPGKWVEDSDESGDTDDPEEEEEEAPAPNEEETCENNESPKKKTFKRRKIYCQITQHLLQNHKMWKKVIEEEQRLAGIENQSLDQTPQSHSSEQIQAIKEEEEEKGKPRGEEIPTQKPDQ
D(1A) dopamine receptor, sequence (P21728 whole entry): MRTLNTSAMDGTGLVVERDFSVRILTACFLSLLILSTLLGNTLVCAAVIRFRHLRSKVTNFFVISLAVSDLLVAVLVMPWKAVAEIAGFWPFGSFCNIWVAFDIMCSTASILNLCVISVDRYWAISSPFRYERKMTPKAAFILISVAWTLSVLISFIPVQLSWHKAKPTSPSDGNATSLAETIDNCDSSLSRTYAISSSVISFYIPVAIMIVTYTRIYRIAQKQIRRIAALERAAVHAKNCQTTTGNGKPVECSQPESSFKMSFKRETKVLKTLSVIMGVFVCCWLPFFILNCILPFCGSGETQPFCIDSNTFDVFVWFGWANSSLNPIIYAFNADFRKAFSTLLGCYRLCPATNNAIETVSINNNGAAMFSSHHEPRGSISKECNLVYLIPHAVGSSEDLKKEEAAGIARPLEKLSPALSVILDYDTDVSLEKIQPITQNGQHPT
5-hydroxytryptamine receptor 2B, sequence (P41595 whole entry): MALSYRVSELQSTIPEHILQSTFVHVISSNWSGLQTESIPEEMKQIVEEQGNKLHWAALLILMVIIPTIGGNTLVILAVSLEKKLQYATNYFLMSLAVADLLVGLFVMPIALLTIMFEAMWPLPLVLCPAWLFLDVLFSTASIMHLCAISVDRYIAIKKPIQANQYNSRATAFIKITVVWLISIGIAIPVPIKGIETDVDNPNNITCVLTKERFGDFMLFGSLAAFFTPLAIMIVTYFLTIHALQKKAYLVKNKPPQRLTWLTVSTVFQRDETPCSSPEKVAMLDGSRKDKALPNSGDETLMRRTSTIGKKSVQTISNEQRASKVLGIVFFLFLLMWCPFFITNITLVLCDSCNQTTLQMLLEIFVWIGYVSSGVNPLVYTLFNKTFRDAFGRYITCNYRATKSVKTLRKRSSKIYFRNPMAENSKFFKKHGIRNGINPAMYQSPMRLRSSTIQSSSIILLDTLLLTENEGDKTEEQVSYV
D(3) dopamine receptor, sequence (P35462 whole entry): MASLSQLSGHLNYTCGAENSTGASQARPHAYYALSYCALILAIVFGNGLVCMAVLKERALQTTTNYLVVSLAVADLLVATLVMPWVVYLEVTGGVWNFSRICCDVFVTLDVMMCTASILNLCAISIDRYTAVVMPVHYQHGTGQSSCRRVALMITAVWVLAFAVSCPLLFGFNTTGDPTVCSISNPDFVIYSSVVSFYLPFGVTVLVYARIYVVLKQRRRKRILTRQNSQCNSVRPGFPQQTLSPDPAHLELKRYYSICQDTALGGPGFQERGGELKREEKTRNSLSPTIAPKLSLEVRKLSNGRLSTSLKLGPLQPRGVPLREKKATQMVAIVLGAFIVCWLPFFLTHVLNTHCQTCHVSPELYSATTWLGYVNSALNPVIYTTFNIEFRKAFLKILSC

For the compound `CC(C)N(CCCCOCC(=O)O)c1cnc(-c2ccccc2)c(-c2ccccc2)n1`, the concentration at half-maximal activity (AC50) (in general, the concentration at which the activity in the assay is half-maximal) on D(1A) dopamine receptor is 7.3 µM; at D(3) dopamine receptor it was > 30 µM; at Thromboxane A2 receptor it was 28 µM; in experiment [1] it was > 30 µM; on Melanocortin receptor 3, > 30 µM; on Adenosine receptor A1, > 30 µM. Moreover, the AC50 in experiment [2] is > 30 µM; at Adenosine receptor A3, 10.1 µM; at Glucocorticoid receptor, > 30 µM; in experiment [3] it was > 30 µM.
In the case of `C[N+]12CCC(CC1)C(OC(=O)C(O)(c1ccccc1)c1ccccc1)C2` (stereo not given), the concentration at half-maximal activity (AC50) (on D(1A) dopamine receptor; at D(3) dopamine receptor; on Thromboxane A2 receptor; in experiment [1]; on Melanocortin receptor 3; on Adenosine receptor A1) was > 30 µM each time. Also, the AC50 (in experiment [2]; at Adenosine receptor A3; on Glucocorticoid receptor; in [3]) was > 30 µM in each case.
As for `CC(=O)c1ccc(S(=O)(=O)NC(=O)NC2CCCCC2)cc1` [ACETOHEXAMIDE], the AC50 is > 10 µM at D(1A) dopamine receptor; > 30 µM on D(3) dopamine receptor; > 10 µM on Thromboxane A2 receptor; > 30 µM in experiment [1]; > 10 µM at Melanocortin receptor 3; > 10 µM at Adenosine receptor A1. Moreover, the AC50 in experiment [2] was > 30 µM; at Adenosine receptor A3, > 10 µM; on Glucocorticoid receptor it was > 10 µM; in [3], > 30 µM.
Turning to `COc1cc(C)c(/C=C/C(C)=C/C=C/C(C)=C/C(=O)O)c(C)c1C` [ACITRETIN], the half-maximal activity concentration (AC50) at D(1A) dopamine receptor was > 10 µM; on D(3) dopamine receptor it was > 30 µM; on Thromboxane A2 receptor it was > 10 µM; in [1] it was > 10 µM; on Melanocortin receptor 3 it was > 10 µM; on Adenosine receptor A1, > 10 µM. Also, the AC50 in experiment [2] is > 30 µM; at Adenosine receptor A3 it was > 10 µM; on Glucocorticoid receptor, > 30 µM; in experiment [3], > 10 µM.
For `COc1ccc(C2C(=O)c3ccccc3C2=O)cc1` [ANISINDIONE], the AC50 on D(1A) dopamine receptor was > 30 µM; at D(3) dopamine receptor, > 30 µM; on Thromboxane A2 receptor, > 10 µM; in experiment [1], > 30 µM; at Melanocortin receptor 3, > 10 µM; at Adenosine receptor A1, > 10 µM. Further, the AC50 in experiment [2] was > 30 µM; at Adenosine receptor A3, > 10 µM; at Glucocorticoid receptor it was > 30 µM; in experiment [3] it was > 10 µM.
As for `O=C(O)CCNC(=O)c1ccc(/N=N/c2ccc(O)c(C(=O)O)c2)cc1` [BALSALAZIDE], the AC50 (at D(1A) dopamine receptor; on D(3) dopamine receptor; at Thromboxane A2 receptor; in experiment [1]; on Melanocortin receptor 3; at Adenosine receptor A1) was > 30 µM throughout. For the same compound, the concentration at half-maximal activity (AC50) was > 30 µM in [2], 27.4 µM on Adenosine receptor A3, > 30 µM on Glucocorticoid receptor and > 30 µM in [3].
Take `NS(=O)(=O)c1cc2c(cc1Cl)N=C(CSCc1ccccc1)NS2(=O)=O` [BENZTHIAZIDE]: the AC50 is > 10 µM at D(1A) dopamine receptor; > 30 µM on D(3) dopamine receptor; > 10 µM at Thromboxane A2 receptor; > 30 µM in experiment [1]; > 10 µM at Melanocortin receptor 3; > 10 µM at Adenosine receptor A1. The concentration at half-maximal activity (AC50) in experiment [2] was > 30 µM; at Adenosine receptor A3, > 10 µM; at Glucocorticoid receptor it was > 30 µM; in experiment [3], > 10 µM.
As to `CO/N=C(\C(=O)N[C@@H]1C(=O)N2C(C(=O)O)=CCS[C@H]12)c1csc(N)n1` [CEFTIZOXIME], the AC50 (at D(1A) dopamine receptor; in experiment [1]; on Melanocortin receptor 3; on Adenosine receptor A1; on Adenosine receptor A3; on Glucocorticoid receptor) was > 30 µM throughout. In addition, the AC50 in [3] is > 30 µM.
Take `CO/N=C(\C(=O)N[C@@H]1C(=O)N2C(C(=O)O)=C(CSc3nc(=O)c(=O)[nH]n3C)CS[C@H]12)c1csc(N)n1` [CEFTRIAXONE]: the concentration at half-maximal activity (AC50) (on D(1A) dopamine receptor; on D(3) dopamine receptor; in experiment [1]; at Melanocortin receptor 3; at Adenosine receptor A1; in [2]) was > 30 µM in each case. The AC50 (on Adenosine receptor A3; at Glucocorticoid receptor; in experiment [3]) was > 30 µM in each case.
For `COc1cc(N)c(Cl)cc1C(=O)NC1CCN(CCCOc2ccc(F)cc2)CC1OC` (stereo not given) [CISAPRIDE], the AC50 at D(1A) dopamine receptor is > 10 µM; at D(3) dopamine receptor, 6.3 µM; on Thromboxane A2 receptor, 22.9 µM; in [1], > 30 µM; on Melanocortin receptor 3, > 30 µM; on Adenosine receptor A1, > 30 µM. Besides, the concentration at half-maximal activity (AC50) at Adenosine receptor A3 and on Glucocorticoid receptor was > 30 µM each time.
Consider `O=c1[nH]c2ccccc2n1CCCN1CCN(C(c2ccccc2)c2ccccc2)CC1` [OXATOMIDE], for which the concentration at half-maximal activity (AC50) is > 30 µM at D(1A) dopamine receptor; 0.13 µM on D(3) dopamine receptor; > 30 µM at Thromboxane A2 receptor; > 30 µM in experiment [1]; > 30 µM at Melanocortin receptor 3; > 30 µM at Adenosine receptor A1. The AC50 was 1.7 µM in experiment [2], 15 µM on Adenosine receptor A3 and > 30 µM at Glucocorticoid receptor.
As to `c1ccc(C2(N3CCCCC3)CCCCC2)cc1` [PHENCYCLIDINE], the AC50 (on D(1A) dopamine receptor; at D(3) dopamine receptor; on Thromboxane A2 receptor; in [1]; at Melanocortin receptor 3; at Adenosine receptor A1) was > 30 µM each time. Further, the half-maximal activity concentration (AC50) (at Adenosine receptor A3; on Glucocorticoid receptor; in experiment [3]) was > 30 µM throughout.
Turning to `COc1cc(C(=O)OCc2cccc(COC(=O)c3cc(OC)c(OC)c(OC)c3)n2)cc(OC)c1OC` [PIROZADIL], the concentration at half-maximal activity (AC50) (on D(1A) dopamine receptor; on D(3) dopamine receptor; on Thromboxane A2 receptor; in experiment [1]; on Melanocortin receptor 3; on Adenosine receptor A1) was > 30 µM throughout. The AC50 (at Adenosine receptor A3; at Glucocorticoid receptor; in experiment [3]) was > 30 µM each time.
On to `CCOC(=O)[C@@H](N)Cc1ccc(-c2cc(O[C@H](c3ccc(Cl)cc3-n3ccc(C)n3)C(F)(F)F)nc(N)n2)cc1` [TELOTRISTAT ETHYL], for which the AC50 is > 30 µM at D(1A) dopamine receptor; > 30 µM at D(3) dopamine receptor; > 30 µM in [1]; 12 µM at Melanocortin receptor 3; > 30 µM at Adenosine receptor A1; > 30 µM in [2]. Besides, the concentration at half-maximal activity (AC50) on Adenosine receptor A3 is 3.1 µM; on Glucocorticoid receptor, 23 µM; in experiment [3], > 30 µM.
